In paper PMC12700101 (2025):

Columns and labels:
[1] = system: Dopamine MAB Cy3–BHQ-1 (DNA, aptamer) ACGCCAGTTTGAAGGTTCGTTCGCAGGTGTGGAGTGACGT; experiment: fluorescence melting; details: 1x PBS, 2 mM MgCl2; derived from two Tm (49.5 ± 0.3, 52.7 ± 0.8); 50 µM dopamine, pH 8.0
[2] = system: Dopamine MAB Cy3–Dab (DNA, aptamer, dabcyl-5-methyl-dC at 41 (3' end)) ACGCCAGTTTGAAGGTTCGTTCGCAGGTGTGGAGTGACGTC; experiment: fluorescence melting; details: 1x PBS, 2 mM MgCl2; derived from two Tm (43.3 ± 1.0, 53.6 ± 0.3); 50 µM dopamine, pH 8.0
[3] = system: Dopamine MAB FAM–Dab (DNA, aptamer, dabcyl-5-methyl-dC at 41 (3' end)) ACGCCAGTTTGAAGGTTCGTTCGCAGGTGTGGAGTGACGTC; experiment: fluorescence melting; details: 1x PBS, 2 mM MgCl2; derived from two Tm (41.7 ± 0.2, 36.9 ± 0.1); 50 µM dopamine, pH 8.0
[4] = system: Dopamine DBS FAM(+T)/BHQ-1 (DNA, aptamer, 6-FAM-modified dT (click, i6-FAMK) at 33) AAATACAACAAGAAAAAACTCTCGGGACGACGTCCAGTTTGAAGGTTCGTTCGCAGGTGTGGAGTGACGTCGTCCC …; experiment: fluorescence melting; details: 1x PBS, 2 mM MgCl2; pH 8.0; 50 µM dopamine; derived from two Tm (49.1, 48.9); displacement strand 1:4
[5] = system: Dopamine DBS FAM(+T)–BHQ-1 (Position 1) (DNA, aptamer, 6-FAM-dT (azide click) at 33) AAATACAACAAGAAAAAACTCTCGGGACGACGTACCAGTTTGAAGGTTCGTTCGCAGGTGTGGAGTGACGTCGTCCC; experiment: fluorescence strand-displacement titration; details: 1x PBS, 2 mM MgCl2; apparent; pH 8.0, 25 °C; displaced 42-nt 5'-BHQ-1 strand, 4 eq
[6] = system: Dopamine DBS BHQ-1–Cy3 (DNA, aptamer) AAATACAACAAGAAAAAACTCTCGGGACGACGACCAGTTTGAAGGTTCGTTCGCAGGTGTGGAGTGACGTCGTCCC; experiment: fluorescence strand-displacement titration; details: 1x PBS, 2 mM MgCl2; apparent; pH 8.0, 25 °C; displaced 42-nt 5'-Cy3 strand, 1 eq
[7] = system: Dopamine DBS Cy3–IABkFQ (DNA, aptamer) AAATACAACAAGAAAAAACTCTCGGGACGACGACCAGTTTGAAGGTTCGTTCGCAGGTGTGGAGTGACGTCGTCCC; experiment: fluorescence strand-displacement titration; details: 1x PBS, 2 mM MgCl2; apparent; pH 8.0, 25 °C; displaced 42-nt 5'-IABkFQ strand, 4 eq
[8] = system: Dopamine DBS Cy3(+T)–IABkFQ (DNA, aptamer) AAATACAACAAGAAAAAACTCTCGGGACGACGTACCAGTTTGAAGGTTCGTTCGCAGGTGTGGAGTGACGTCGTCCC; experiment: fluorescence strand-displacement titration; details: 1x PBS, 2 mM MgCl2; apparent; pH 8.0, 25 °C; displaced 42-nt 5'-IABkFQ strand, 4 eq
[9] = system: Dopamine DBS Cy3–BHQ-1 (Term.) (DNA, aptamer) AAATACAACAAGAAAAAACTCTCGGGACGACGACCAGTTTGAAGGTTCGTTCGCAGGTGTGGAGTGACGTCGTCCC; experiment: fluorescence strand-displacement titration; details: 1x PBS, 2 mM MgCl2; apparent; pH 8.0, 25 °C; displaced 43-nt strand, 5'-BHQ-1 plus T, 4 eq
[10] = system: Dopamine DBS Cy3–BHQ-1 (Int.) (DNA, aptamer) AAATACAACAAGAAAAAACTCTCGGGACGACGACCAGTTTGAAGGTTCGTTCGCAGGTGTGGAGTGACGTCGTCCC; experiment: fluorescence strand-displacement titration; details: 1x PBS, 2 mM MgCl2; apparent; pH 8.0, 25 °C; displaced 42-nt strand, internal BHQ-1, 4 eq
[11] = system: Dopamine DBS Cy3(+T)–BHQ-1 Terminal (DNA, aptamer) AAATACAACAAGAAAAAACTCTCGGGACGACGTACCAGTTTGAAGGTTCGTTCGCAGGTGTGGAGTGACGTCGTCCC; experiment: fluorescence strand-displacement titration; details: 1x PBS, 2 mM MgCl2; apparent; pH 8.0, 25 °C; displaced 43-nt strand, 5'-BHQ-1 plus T, 4 eq
[12] = system: Dopamine DBS Cy3(+T)–BHQ-1 Internal (DNA, aptamer) AAATACAACAAGAAAAAACTCTCGGGACGACGTACCAGTTTGAAGGTTCGTTCGCAGGTGTGGAGTGACGTCGTCCC; experiment: fluorescence strand-displacement titration; details: 1x PBS, 2 mM MgCl2; apparent; pH 8.0, 25 °C; displaced 42-nt strand, internal BHQ-1, 4 eq
[13] = system: Dopamine DBS FAM(+T)–BHQ-1 Terminal (DNA, aptamer, 6-FAM-dT (azide click) at 33) AAATACAACAAGAAAAAACTCTCGGGACGACGTACCAGTTTGAAGGTTCGTTCGCAGGTGTGGAGTGACGTCGTCCC; experiment: fluorescence strand-displacement titration; details: 1x PBS, 2 mM MgCl2; apparent; pH 8.0, 25 °C; displaced 43-nt strand, 5'-BHQ-1 plus T, 4 eq
[14] = system: Dopamine DBS Cy3–BHQ-1 (Position 3) (DNA, aptamer) AAATACAACAAGAAAAAACTCTCGGGACGACGACCAGTTTGAAGGTTCGTTCGCAGGTGTGGAGTGACGTCGTCCC; experiment: fluorescence strand-displacement titration; details: 1x PBS, 2 mM MgCl2; apparent; pH 8.0, 25 °C; displaced 42-nt strand, internal BHQ-1 (position 3), 4 eq
[15] = system: Dopamine MAB Cy3–BHQ-1 (DNA, aptamer) ACGCCAGTTTGAAGGTTCGTTCGCAGGTGTGGAGTGACGT; experiment: fluorescence quenching titration (molecular aptamer beacon); details: 1x PBS, 2 mM MgCl2; apparent; pH 8.0, 25 °C
[16] = system: Dopamine MAB Cy3–BHQ-2 (DNA, aptamer) ACGCCAGTTTGAAGGTTCGTTCGCAGGTGTGGAGTGACGT; experiment: as above; details: 1x PBS, 2 mM MgCl2; apparent; pH 8.0, 25 °C

Tm [1]: 3.2 °C
Tm [2]: 10.3 °C
Tm [3]: -4.8 °C
Tm [4]: -0.2 °C
Kd [5]: 6.1 ± 0.7 µM
Kd [6]: 95.6 ± 6.7 µM
Kd [7]: 85.0 ± 15.6 µM
Kd [8]: 41.8 ± 5.0 µM
Kd [9]: 142.9 ± 11.7 µM
Kd [10]: 34.0 ± 3.3 µM
Kd [11]: 40.1 ± 5.0 µM
Kd [12]: 17.3 ± 1.3 µM
Kd [13]: 10.2 ± 1.0 µM
Kd [14]: 2.3 ± 0.3 µM
Kd [15]: 53.8 ± 8.8 µM
Kd [16]: 12.4 ± 2.0 µM
SMILES: NCCc1ccc(O)c(O)c1
